Patent US20100063065A1 (Inpharmatica Limited, priority 2005, published 2010)
Structures can show the parent of a compound that is named as a salt.

biological target: T1, PPARδ (Homo sapiens, UniProt Q03181); test: Transactivation assay (PPARδ GAL4 assay) in transiently transfected HEK293 cells; type: cell-based; settings: luciferase reporter, Table 2
T1 construct: fused to amino acids 147-441 of PPARδ downstream of CMV promoter; expressed in transfected cells; host or cells: HEK293 cells, transiently transfected with pFACMV-PPARδ using Fugene
T1 sequence (Q03181 147-441): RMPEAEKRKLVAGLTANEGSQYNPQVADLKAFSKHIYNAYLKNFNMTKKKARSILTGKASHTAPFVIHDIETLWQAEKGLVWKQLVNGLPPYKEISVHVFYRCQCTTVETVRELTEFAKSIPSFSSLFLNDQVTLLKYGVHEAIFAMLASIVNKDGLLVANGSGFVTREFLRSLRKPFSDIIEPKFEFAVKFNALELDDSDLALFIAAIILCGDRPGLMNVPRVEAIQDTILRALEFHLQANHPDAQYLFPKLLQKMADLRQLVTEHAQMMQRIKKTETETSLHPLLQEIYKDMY
How it was run: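 Luciferase luminescence after 24 h compound treatment (0-30 μM final, OptiMEM, 37° C./5% CO2) gave EC50 by sigmoidal fitting, with activity normalised to GW501516 as percent. Reporter system: transiently transfected HEK293 expressing GAL4 DNA-binding domain fused to human PPARδ aa 147-441, plus 5×GAL4-driven luciferase.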

| Structure (SMILES) | EC50 [nM] |
| --- | --- |
| CCc1cc(C(=O)c2ccc(OC(F)(F)F)cc2)c(NC(=O)CN2CCCC(C(=O)O)C2)s1 (stereo not drawn) [Example 159, 1-{[5-Ethyl-3-(4-trifluoromethoxy-benzoyl)-thiophen-2-ylcarbamoyl]-methyl}-piperidine-3-carboxylic acid] | 100 to 1000 |
| CCc1cc(C(=O)c2ccc(OC(F)(F)F)cc2)c(NC(=O)CN[C@@H](C)C(=O)O)s1 [Example 160, (S)-2-({[5-Ethyl-3-(4-trifluoromethoxy-benzoyl)-thiophen-2-ylcarbamoyl]-methyl}-amino)-propionic acid] | 100 to 1000 |
| CCc1cc(C(=O)c2ccc(OC(F)(F)F)cc2)c(NC(=O)CN[C@H](C)C(=O)O)s1 [Example 161, (R)-2-({[5-Ethyl-3-(4-trifluoromethoxy-benzoyl)-thiophen-2-ylcarbamoyl]-methyl}-amino)-propionic acid] | 100 to 1000 |
| CCc1cc(C(=O)c2ccc(OC(F)(F)F)cc2)c(NC(=O)CN2CCC(C(=O)O)C2)s1 (stereo not drawn) [Example 162, 1-{[5-Ethyl-3-(4-trifluoromethoxy-benzoyl)-thiophen-2-ylcarbamoyl]-methyl}-pyrrolidine-3-carboxylic acid] | 100 to 1000 |
| CCc1cc(C(=O)c2ccc(OC(F)(F)F)cc2)c(NC(=O)CN2CCC(C(=O)O)CC2)s1 [Example 163, 1-{[5-Ethyl-3-(4-trifluoromethoxy-benzoyl)-thiophen-2-ylcarbamoyl]-methyl}-piperidine-4-carboxylic acid] | 100 to 1000 |
| CCc1cc(C(=O)c2ccc(OC(F)(F)F)cc2)c(NC(=O)CNC2(C(=O)O)CCC2)s1 [Example 164, 1-({[5-Ethyl-3-(4-trifluoromethoxy-benzoyl)-thiophen-2-ylcarbamoyl]-methyl}-amino)-cyclobutanecarboxylic acid] | < 100 |
| CCc1cc(C(=O)c2ccc(OC(F)(F)F)cc2)c(NC(=O)CN2CCCCC2C(=O)O)s1 (stereo not drawn) [Example 165, 1-{[5-Ethyl-3-(4-trifluoromethoxy-benzoyl)-thiophen-2-ylcarbamoyl]-methyl}-piperidine-2-carboxylic acid] | 100 to 1000 |
| CCc1cc(C(=O)c2ccc(OC(F)(F)F)cc2)c(NC(=O)CNC2(C(=O)O)CCCCC2)s1 [Example 166, 1-({[5-Ethyl-3-(4-trifluoromethoxy-benzoyl)-thiophen-2-ylcarbamoyl]-methyl}-amino)-cyclohexanecarboxylic acid] | 100 to 1000 |
| CCc1cc(C(=O)c2ccc(OC(F)(F)F)cc2)c(NC(=O)CN2CCC[C@H]2C(=O)O)s1 [Example 167, (S)-1-{[5-Ethyl-3-(4-trifluoromethoxy-benzoyl)-thiophen-2-ylcarbamoyl]-methyl}-pyrrolidine-2-carboxylic acid] | 1000 to 30000 |
| CCc1cc(C(=O)c2ccc(OC(F)(F)F)cc2)c(NC(=O)CN2CCC[C@@H]2C(=O)O)s1 [Example 168, (R)-1-{[5-Ethyl-3-(4-trifluoromethoxy-benzoyl)-thiophen-2-ylcarbamoyl]-methyl}-pyrrolidine-2-carboxylic acid] | 100 to 1000 |
| CCc1cc(C(=O)c2ccc(OC(F)(F)F)c(Cl)c2)c(NC(=O)CN[C@H](C(=O)O)C(C)C)s1 [Example 169, (S)-2-({[3-(3-Chloro-4-trifluoromethoxy-benzoyl)-5-ethyl-thiophen-2-ylcarbamoyl]-methyl}-amino)-3-methyl-butyric acid] | 100 to 1000 |
| CCc1cc(C(=O)c2ccc(Cl)c(Cl)c2)c(NC(=O)CN[C@H](C(=O)O)C(C)C)s1 [Example 170, (S)-2-({[3-(3,4-Dichloro-benzoyl)-5-ethyl-thiophen-2-ylcarbamoyl]-methyl}-amino)-3—methyl-butyric acid] | 100 to 1000 |
| CCc1cc(C(=O)c2ccc(OC(F)(F)F)c(Cl)c2)c(NC(=O)CNC(C)(C)C(=O)O)s1 [Example 171, 2-({[3-(3-Chloro-4-trifluoromethoxy-benzoyl)-5-ethyl-thiophen-2-ylcarbamoyl]-methyl}-amino)-2-methyl-propionic acid] | < 100 |
| CCc1cc(C(=O)c2ccc(OC(F)(F)F)cc2)c(NC(=O)CN2CCC[C@]2(C)C(=O)O)s1 [Example 172, (R)-1-{[5-Ethyl-3-(4-trifluoromethoxy-benzoyl)-thiophen-2-ylcarbamoyl]-methyl}-2-methyl-pyrrolidine-2-carboxylic acid] | 100 to 1000 |
| CCc1cc(C(=O)c2ccc(OC(F)(F)F)cc2)c(NC(=O)CN2CCCC2(C)C(=O)O)s1 (stereo not drawn) [Example 173, 1-{[5-Ethyl-3-(4-trifluoromethoxy-benzoyl)-thiophen-2-ylcarbamoyl]-methyl}-2-methyl-pyrrolidine-2-carboxylic acid] | 100 to 1000 |
| CCc1cc(C(=O)c2ccc(OC(F)(F)F)cc2)c(NC(=O)CC(C)CC(=O)O)s1 (stereo not drawn) [Example 174, 4-[5-Ethyl-3-(4-trifluoromethoxy-benzoyl)-thiophen-2-ylcarbamoyl]-3-methyl-butyric acid] | < 100 |
| CCc1cc(C(=O)c2ccc(OCC(F)(F)F)cc2)c(NC(=O)CSCC(=O)O)s1 [Example 175, ({5-Ethyl-3-[4-(2,2,2-trifluoro-ethoxy)-benzoyl]-thiophen-2-ylcarbamoyl}-methylsulfanyl)-acetic acid] | 100 to 1000 |
| CCc1cc(C(=O)c2ccc(OC(F)(F)F)cc2)c(NC(=O)C2CCCN(CC(=O)O)C2)s1 (stereo not drawn) [Example 176, {3-[5-Ethyl-3-(4-trifluoromethoxy-benzoyl)-thiophen-2-ylcarbamoyl]-piperidin-1-yl}-acetic acid] | 1000 to 30000 |
| CCc1cc(C(=O)c2ccc(OC(F)(F)F)cc2)c(NC(=O)C2CCN(CC(=O)O)CC2)s1 [Example 177, {4-[5-Ethyl-3-(4-trifluoromethoxy-benzoyl)-thiophen-2-ylcarbamoyl]-piperidin-1-yl}-acetic acid] | 1000 to 30000 |

Second part, the compound after the results:

| EC50 [nM] | Structure (SMILES) |
| --- | --- |
| < 100 | CCc1cc(C(=O)c2ccc(OC(F)(F)F)cc2)c(NC(=O)CN2[C@@H](C(=O)O)CC[C@@H]2c2ccc(F)cc2)s1 [Example 181, (2R,5R)-1-{[5-Ethyl-3-(4-trifluoromethoxy-benzoyl)-thiophen-2-ylcarbamoyl]-methyl}-5-(4-fluoro-phenyl)-pyrrolidine-2-carboxylic acid] |
| < 100 | CCc1cc(C(=O)c2ccc(OC(F)(F)F)cc2)c(NC(=O)CN2[C@@H](C(=O)O)CC[C@@H]2C)s1 [Example 182, (2R,5S)-1-{[5-Ethyl-3-(4-trifluoromethoxy-benzoyl)-thiophen-2-ylcarbamoyl]-methyl}-5-methyl-pyrrolidine-2-carboxylic acid] |
| < 100 | CCc1cc(C(=O)c2ccc(OC(F)(F)F)cc2)c(NC(=O)CN2[C@@H](CC)CC[C@@H]2C(=O)O)s1 [Example 183, (2R,5S)-5-Ethyl-1-{[5-ethyl-3-(4-trifluoromethoxy-benzoyl)-thiophen-2-ylcarbamoyl]-methyl}-pyrrolidine-2-carboxylic acid] |
| < 100 | CCc1cc(C(=O)c2ccc(OC(F)(F)F)cc2)c(NC(=O)CN2[C@@H](C(=O)O)CC[C@@H]2c2ccccc2)s1 [Example 184, (2R,5R)-1-{[5-Ethyl-3-(4-trifluoromethoxy-benzoyl)-thiophen-2-ylcarbamoyl]-methyl}-5-phenyl-pyrrolidine-2-carboxylic acid] |
| < 100 | CCc1cc(C(=O)c2ccc(OC(F)(F)F)cc2)c(NC(=O)CN2[C@@H](C(=O)O)CC[C@@H]2C(C)C)s1 [Example 185, (2R,5R)-1-{[5-Ethyl-3-(4-trifluoromethoxy-benzoyl)-thiophen-2-ylcarbamoyl]-methyl}-5-isopropyl-pyrrolidine-2-carboxylic acid] |
| < 100 | CCc1cc(C(=O)c2ccc(OC(F)(F)F)cc2)c(NC(=O)C(C)N2[C@@H](C(=O)O)CC[C@@H]2C)s1 (stereo partly drawn) [Example 186, (2R,5S)-1-{1-[5-Ethyl-3-(4-trifluoromethoxy-benzoyl)-thiophen-2-ylcarbamoyl]-ethyl}-5-methyl-pyrrolidine-2-carboxylic acid] |
| 100 to 1000 | CCc1cc(C(=O)c2ccc(Cl)cc2)c(NC(=O)CN2[C@@H](C(=O)O)CC[C@@H]2c2ccccc2)s1 [Example 187, (2R,5R)-1-{[3-(4-Chloro-benzoyl)-5-ethyl-thiophen-2-ylcarbamoyl]-methyl}-5-phenyl-pyrrolidine-2-carboxylic acid hydrochloride] |
| < 100 | O=C(CN1[C@@H](C(=O)O)CC[C@@H]1c1ccccc1)Nc1sc(Cl)cc1C(=O)c1ccc(OC(F)(F)F)cc1 [Example 188, (2R,5R)-1-{[5-Chloro-3-(4-trifluoromethoxy-benzoyl)-thiophen-2-ylcarbamoyl]-methyl}-5-phenyl-pyrrolidine-2-carboxylic acid hydrochloride] |
| < 100 | CCc1cc(C(=O)c2ccc(OC(F)(F)F)cc2)c(NC(=O)CN2CCCC2C(=O)O)s1 (stereo not drawn) [Example 189, 1-{[5-Ethyl-3-(4-trifluoromethoxy-benzoyl)-thiophen-2-ylcarbamoyl]-methyl}-pyrrolidine-2-carboxylic acid] |
| < 100 | CCc1cc(C(=O)c2ccc(OC(F)(F)F)cc2)c(NC(=O)CNC2(C(=O)O)CCCC2)s1 [Example 190, 1-({[5-Ethyl-3-(4-trifluoromethoxy-benzoyl)-thiophen-2-ylcarbamoyl]-methyl}-amino)-cyclopentanecarboxylic acid] |
| 100 to 1000 | CCc1cc(C(=O)c2ccc(OC(F)(F)F)cc2)c(NC(=O)CN[C@@H](CC)C(=O)O)s1 [Example 191, (S)-2-({[5-Ethyl-3-(4-trifluoromethoxy-benzoyl)-thiophen-2-ylcarbamoyl]-methyl}-amino)-butyric acid] |
